ChEMBL document CHEMBL1201862, “PubChem BioAssay data set” (2004)
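Method: 48-hour compound exposure of cells in 96-well plates, five concentrations, linear interpolation of endpoints. Abbreviation: GI50, concentration required for 50% inhibition of growth.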 Activity calls are given as the source filed them. No stated cut-off is given here; in the data, active = GI50 up to about 1.1 µM and inactive = higher.

Columns and labels:
Assay in all cases: DTP human tumour cell line panel, 48 h
SNB-75 = test system: SNB-75
U-251 = test system: U-251
HT-29 = test system: HT-29
TK-10 = test system: TK-10
A549 = test system: A549
OVCAR-3 = test system: OVCAR-3
CCRF-CEM = test system: CCRF-CEM
OVCAR-5 = test system: OVCAR-5
HOP-18 = test system: HOP-18
SNB-19 = test system: SNB-19
RXF 631 = test system: RXF 631
HCT-116 = test system: HCT-116
SF-539 = test system: SF-539
COLO 205 = test system: COLO 205
UACC-257 = test system: UACC-257
K562 = test system: K562
LXFL 529 = test system: LXFL 529
NCI-H23 = test system: NCI-H23
SF-268 = test system: SF-268
NCI-H460 = test system: NCI-H460
KM-20L2 = test system: KM-20L2
DMS-114 = test system: DMS-114
M14 = test system: M14
SNB-78 = test system: SNB-78
NCI-H522 = test system: NCI-H522
A498 = test system: A498
HCT-15 = test system: HCT-15
SN12C = test system: SN12C
ACHN = test system: ACHN
RPMI-8226 = test system: RPMI-8226
HOP-92 = test system: HOP-92
786-0 = test system: 786-0
SK-MEL-2 = test system: SK-MEL-2
NCI-H226 = test system: NCI-H226
EKVX = test system: EKVX
CAKI-1 = test system: CAKI-1
RXF 393 = test system: RXF 393
SK-MEL-5 = test system: SK-MEL-5
DMS-273 = test system: DMS-273
HL-60 = test system: HL-60
SK-MEL-28 = test system: SK-MEL-28
OVCAR-8 = test system: OVCAR-8
LOX IMVI = test system: LOX IMVI
Malme-3M = test system: Malme-3M
SK-OV-3 = test system: SK-OV-3
SW-620 = test system: SW-620
OVCAR-4 = test system: OVCAR-4
MOLT-4 = test system: MOLT-4
UO-31 = test system: UO-31
DLD-1 = test system: DLD-1
HOP-62 = test system: HOP-62
HCC 2998 = test system: HCC 2998
KM12 = test system: KM12
XF498 = test system: XF498
UACC-62 = test system: UACC-62
SF-295 = test system: SF-295
SR = test system: SR
M19-MEL = test system: M19-MEL
IGROV-1 = test system: IGROV-1

Measured: GI50

Cc1ccccc1NC(=O)C(=O)C(C(=O)c1ccccc1F)C1OC(=O)c2ccccc21 (configuration not stated)
24.5 µM: HCT-15
inactive: SNB-75 8.39 µM | U-251 7.53 µM | HT-29 40.3 µM | TK-10 43 µM | A549 42.2 µM | OVCAR-3 24.6 µM | CCRF-CEM 10.6 µM | OVCAR-5 41.8 µM | HOP-18 23.4 µM | SNB-19 10.1 µM | RXF 631 26.9 µM | HCT-116 15 µM | SF-539 8.32 µM | COLO 205 21.3 µM | UACC-257 21.1 µM | K562 24.3 µM | LXFL 529 13.4 µM | NCI-H23 10.3 µM | SF-268 18.9 µM | NCI-H460 32.9 µM | KM-20L2 38.3 µM | DMS-114 10.2 µM | M14 16.6 µM | SNB-78 13.3 µM | NCI-H522 5.68 µM | A498 45.8 µM | SN12C 25 µM | ACHN 43.7 µM | RPMI-8226 11.9 µM | HOP-92 33.3 µM | 786-0 16.3 µM | SK-MEL-2 24.7 µM | NCI-H226 3.38 µM | EKVX 96.6 µM | CAKI-1 21.1 µM | RXF 393 8.53 µM | SK-MEL-5 22.4 µM | DMS-273 23.3 µM | HL-60 16.3 µM | SK-MEL-28 16.5 µM | OVCAR-8 > 10 µM | LOX IMVI 16 µM | Malme-3M 18.8 µM | SK-OV-3 34.1 µM | SW-620 34.9 µM | OVCAR-4 18.4 µM | MOLT-4 9.59 µM | UO-31 15.8 µM | DLD-1 22.2 µM | HOP-62 17.3 µM | HCC 2998 11.5 µM | KM12 23 µM

NC(=O)COc1c(Br)cc(Br)cc1Br
inactive: SNB-75 > 100 µM | U-251 > 100 µM | HT-29 > 100 µM | A549 > 100 µM | OVCAR-3 > 100 µM | XF498 > 100 µM | CCRF-CEM > 100 µM | OVCAR-5 > 100 µM | SNB-19 > 100 µM | RXF 631 > 100 µM | HCT-116 > 100 µM | SF-539 > 100 µM | COLO 205 > 100 µM | UACC-257 > 100 µM | UACC-62 > 100 µM | K562 > 100 µM | NCI-H23 > 100 µM | SF-268 > 100 µM | NCI-H460 > 100 µM | KM-20L2 > 100 µM | DMS-114 > 100 µM | M14 > 100 µM | NCI-H522 > 100 µM | SN12C > 100 µM | ACHN > 100 µM | RPMI-8226 > 100 µM | 786-0 > 100 µM | SK-MEL-2 > 100 µM | NCI-H226 > 100 µM | EKVX > 100 µM | CAKI-1 > 100 µM | SK-MEL-5 > 100 µM | DMS-273 > 100 µM | SK-MEL-28 > 100 µM | SF-295 > 100 µM | OVCAR-8 > 100 µM | Malme-3M > 100 µM | SR > 100 µM | SK-OV-3 > 100 µM | OVCAR-4 27.7 µM | MOLT-4 > 100 µM | UO-31 > 100 µM | DLD-1 > 100 µM | HOP-62 > 100 µM | HCC 2998 > 100 µM | M19-MEL > 100 µM | KM12 > 100 µM
> 100 µM: HCT-15

O=C(CCCNC(=O)OCc1ccccc1)OCc1ccc2c(c1)C(=O)c1ccccc1C2=O
inactive: SNB-75 20 µM | U-251 86.1 µM | HT-29 > 100 µM | TK-10 34.8 µM | A549 > 100 µM | OVCAR-3 > 100 µM | CCRF-CEM > 100 µM | OVCAR-5 > 100 µM | SNB-19 51.4 µM | RXF 631 > 78.7 µM | HCT-116 > 100 µM | SF-539 23.1 µM | COLO 205 > 7.6 µM | UACC-257 > 100 µM | UACC-62 > 100 µM | K562 > 100 µM | LXFL 529 > 100 µM | NCI-H23 45.6 µM | SF-268 53.8 µM | NCI-H460 > 100 µM | KM-20L2 > 100 µM | DMS-114 > 97.1 µM | M14 > 100 µM | SNB-78 38.4 µM | NCI-H522 > 100 µM | A498 27.2 µM | SN12C > 10.2 µM | ACHN > 100 µM | RPMI-8226 > 100 µM | HOP-92 36.6 µM | 786-0 25.3 µM | SK-MEL-2 > 89.7 µM | NCI-H226 5.46 µM | EKVX > 100 µM | CAKI-1 > 56.8 µM | RXF 393 22.2 µM | SK-MEL-5 > 30.7 µM | HL-60 > 100 µM | SK-MEL-28 > 100 µM | SF-295 11.3 µM | OVCAR-8 47.9 µM | LOX IMVI > 100 µM | Malme-3M > 100 µM | SR > 100 µM | SK-OV-3 29.6 µM | SW-620 > 100 µM | OVCAR-4 > 100 µM | MOLT-4 > 100 µM | UO-31 > 100 µM | DLD-1 > 100 µM | IGROV-1 48.9 µM | HOP-62 30.6 µM | HCC 2998 > 100 µM | KM12 > 100 µM
> 100 µM: HCT-15

CCN(CC)C(c1ccc(N(C)C)cc1)C(c1ccc(N(C)C)cc1)N(CC)CC (configuration not stated)
inactive: SNB-75 14.2 µM | U-251 > 72.9 µM | HT-29 21.6 µM | TK-10 > 72.9 µM | A549 > 72.9 µM | OVCAR-3 21.5 µM | CCRF-CEM 26 µM | OVCAR-5 > 72.9 µM | SNB-19 62.8 µM | RXF 631 > 72.9 µM | HCT-116 35.2 µM | SF-539 36.5 µM | COLO 205 43.3 µM | UACC-257 36.6 µM | UACC-62 20.1 µM | K562 15.8 µM | LXFL 529 30.3 µM | NCI-H23 48.3 µM | SF-268 65 µM | NCI-H460 69.2 µM | KM-20L2 64 µM | DMS-114 14.5 µM | M14 33.3 µM | SNB-78 21.2 µM | NCI-H522 > 7.29 µM | A498 > 72.9 µM | SN12C > 72.9 µM | ACHN 47 µM | RPMI-8226 21.9 µM | HOP-92 13.2 µM | 786-0 61.2 µM | SK-MEL-2 22.8 µM | NCI-H226 27.3 µM | EKVX > 72.9 µM | CAKI-1 25.9 µM | RXF 393 25.9 µM | SK-MEL-5 16.8 µM | DMS-273 44.8 µM | HL-60 14.8 µM | SK-MEL-28 26.4 µM | SF-295 39.2 µM | OVCAR-8 > 72.9 µM | Malme-3M 17 µM | SK-OV-3 > 72.9 µM | SW-620 21.4 µM | OVCAR-4 12.9 µM | MOLT-4 30.3 µM | IGROV-1 47.6 µM | HOP-62 61.5 µM | HCC 2998 40.4 µM | M19-MEL 23.9 µM | KM12 22.9 µM
30.2 µM: HCT-15

CCC12C=CCN3CCC4(C(=C(C(=O)OC)[C@@H]1O)Nc1ccccc14)C32 (some centres not stated)
inactive: SNB-75 1.9 µM | U-251 2.24 µM | HT-29 1.98 µM | TK-10 2.24 µM | A549 2.09 µM | OVCAR-3 1.99 µM | XF498 1.63 µM | CCRF-CEM 1.76 µM | OVCAR-5 2.44 µM | HOP-18 1.71 µM | SNB-19 1.91 µM | HCT-116 1.57 µM | SF-539 2.07 µM | COLO 205 1.81 µM | UACC-62 1.77 µM | K562 2.03 µM | LXFL 529 1.66 µM | NCI-H23 1.85 µM | SF-268 2.29 µM | NCI-H460 1.87 µM | KM-20L2 1.84 µM | DMS-114 1.69 µM | M14 2.2 µM | SNB-78 2.8 µM | NCI-H522 1.61 µM | A498 1.96 µM | SN12C 2.3 µM | ACHN 1.56 µM | RPMI-8226 2.17 µM | HOP-92 1.6 µM | 786-0 1.64 µM | SK-MEL-2 1.9 µM | NCI-H226 1.26 µM | EKVX 1.85 µM | CAKI-1 2.29 µM | RXF 393 1.36 µM | SK-MEL-5 1.79 µM | DMS-273 1.69 µM | HL-60 2 µM | SK-MEL-28 1.95 µM | SF-295 2.05 µM | OVCAR-8 2.04 µM | LOX IMVI 1.64 µM | Malme-3M 1.74 µM | SR 1.78 µM | SK-OV-3 2.43 µM | SW-620 1.72 µM | OVCAR-4 2.12 µM | MOLT-4 2.43 µM | UO-31 2.4 µM | DLD-1 1.67 µM | IGROV-1 1.83 µM | HOP-62 2.12 µM | HCC 2998 1.63 µM | M19-MEL 1.74 µM | KM12 1.7 µM
1.57 µM: HCT-15
active: UACC-257 1.1 µM
